Laboratory results published in article PMC10044159, “Inhibitory effects of sulfenimides on human and bovine carbonic anhydrase enzymes” (Journal of Enzyme Inhibition and Medicinal Chemistry, 2023).

Columns and labels:
hCA-II = biological target: T1, hCA-II (Homo sapiens, UniProt P00918); experiment: CO2 hydratase assay (Wilbur-Anderson); assay type: biochemical
T1 construct: gene CA2
Excerpt: CO2 hydratase assay (Wilbur-Anderson) on hCA-II

hCA-I = biological target: T2, hCA-I (Homo sapiens, UniProt P00915); experiment: CO2 hydratase assay (Wilbur-Anderson); assay type: biochemical
T2 construct: gene CA1
T2 sequence (P00915 2-261): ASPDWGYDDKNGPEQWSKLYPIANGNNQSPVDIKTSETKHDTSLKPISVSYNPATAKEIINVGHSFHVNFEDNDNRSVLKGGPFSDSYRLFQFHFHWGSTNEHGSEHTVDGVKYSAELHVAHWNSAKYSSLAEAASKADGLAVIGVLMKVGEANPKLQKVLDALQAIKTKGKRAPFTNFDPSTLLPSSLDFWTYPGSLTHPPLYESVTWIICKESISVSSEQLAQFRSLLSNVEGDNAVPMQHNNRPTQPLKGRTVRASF
Excerpt: CO2 hydratase assay (Wilbur-Anderson) on hCA-I

SMILES | Ki (hCA-II) | Ki (hCA-I)
O=C1c2ccccc2C(=O)N1Sc1ccccc1 [1a] | 0.0515 µM | 0.0585 µM
COc1ccc(SN2C(=O)c3ccccc3C2=O)cc1 [1c] | 0.06 µM | 0.0379 µM
O=C1c2ccccc2C(=O)N1Sc1ccc([N+](=O)[O-])cc1 [1d] | 0.152 µM | 0.119 µM
O=C1c2ccccc2C(=O)N1Sc1ccc(Cl)cc1 [1e] | 0.143 µM | 0.0321 µM
O=C1c2ccccc2C(=O)N1Sc1ccc(Br)cc1 [1f] | 0.044 µM | 0.023 µM
O=C1c2ccccc2C(=O)N1SCc1ccccc1 [1g] | 0.052 µM | 0.0408 µM
O=C1c2ccccc2C(=O)N1SC1CCCCC1 [1h] | 0.0617 µM | 0.0503 µM
O=C1c2ccccc2C(=O)N1Sc1nc2ccccc2[nH]1 [1i] | 0.0546 µM | 0.0254 µM
